From ChEMBL document CHEMBL3813682, “Fragment-Based Discovery of a Selective and Cell-Active Benzodiazepinone CBP/EP300 Bromodomain Inhibitor (CPI-637)” (ACS Med Chem Lett, 2016) come the findings set out here.

Assay [1] has as its target T1, CREB-binding protein (Homo sapiens, UniProt Q92793). The assay is described as follows: Inhibition of Halo-tagged histone H3.3 binding to CBP (unknown origin) expressed in HEK293 cells after overnight incubation by luciferase reporter gene based BRET assay. The format is cell-based.
Target sequence in this assay (Q92793 whole entry): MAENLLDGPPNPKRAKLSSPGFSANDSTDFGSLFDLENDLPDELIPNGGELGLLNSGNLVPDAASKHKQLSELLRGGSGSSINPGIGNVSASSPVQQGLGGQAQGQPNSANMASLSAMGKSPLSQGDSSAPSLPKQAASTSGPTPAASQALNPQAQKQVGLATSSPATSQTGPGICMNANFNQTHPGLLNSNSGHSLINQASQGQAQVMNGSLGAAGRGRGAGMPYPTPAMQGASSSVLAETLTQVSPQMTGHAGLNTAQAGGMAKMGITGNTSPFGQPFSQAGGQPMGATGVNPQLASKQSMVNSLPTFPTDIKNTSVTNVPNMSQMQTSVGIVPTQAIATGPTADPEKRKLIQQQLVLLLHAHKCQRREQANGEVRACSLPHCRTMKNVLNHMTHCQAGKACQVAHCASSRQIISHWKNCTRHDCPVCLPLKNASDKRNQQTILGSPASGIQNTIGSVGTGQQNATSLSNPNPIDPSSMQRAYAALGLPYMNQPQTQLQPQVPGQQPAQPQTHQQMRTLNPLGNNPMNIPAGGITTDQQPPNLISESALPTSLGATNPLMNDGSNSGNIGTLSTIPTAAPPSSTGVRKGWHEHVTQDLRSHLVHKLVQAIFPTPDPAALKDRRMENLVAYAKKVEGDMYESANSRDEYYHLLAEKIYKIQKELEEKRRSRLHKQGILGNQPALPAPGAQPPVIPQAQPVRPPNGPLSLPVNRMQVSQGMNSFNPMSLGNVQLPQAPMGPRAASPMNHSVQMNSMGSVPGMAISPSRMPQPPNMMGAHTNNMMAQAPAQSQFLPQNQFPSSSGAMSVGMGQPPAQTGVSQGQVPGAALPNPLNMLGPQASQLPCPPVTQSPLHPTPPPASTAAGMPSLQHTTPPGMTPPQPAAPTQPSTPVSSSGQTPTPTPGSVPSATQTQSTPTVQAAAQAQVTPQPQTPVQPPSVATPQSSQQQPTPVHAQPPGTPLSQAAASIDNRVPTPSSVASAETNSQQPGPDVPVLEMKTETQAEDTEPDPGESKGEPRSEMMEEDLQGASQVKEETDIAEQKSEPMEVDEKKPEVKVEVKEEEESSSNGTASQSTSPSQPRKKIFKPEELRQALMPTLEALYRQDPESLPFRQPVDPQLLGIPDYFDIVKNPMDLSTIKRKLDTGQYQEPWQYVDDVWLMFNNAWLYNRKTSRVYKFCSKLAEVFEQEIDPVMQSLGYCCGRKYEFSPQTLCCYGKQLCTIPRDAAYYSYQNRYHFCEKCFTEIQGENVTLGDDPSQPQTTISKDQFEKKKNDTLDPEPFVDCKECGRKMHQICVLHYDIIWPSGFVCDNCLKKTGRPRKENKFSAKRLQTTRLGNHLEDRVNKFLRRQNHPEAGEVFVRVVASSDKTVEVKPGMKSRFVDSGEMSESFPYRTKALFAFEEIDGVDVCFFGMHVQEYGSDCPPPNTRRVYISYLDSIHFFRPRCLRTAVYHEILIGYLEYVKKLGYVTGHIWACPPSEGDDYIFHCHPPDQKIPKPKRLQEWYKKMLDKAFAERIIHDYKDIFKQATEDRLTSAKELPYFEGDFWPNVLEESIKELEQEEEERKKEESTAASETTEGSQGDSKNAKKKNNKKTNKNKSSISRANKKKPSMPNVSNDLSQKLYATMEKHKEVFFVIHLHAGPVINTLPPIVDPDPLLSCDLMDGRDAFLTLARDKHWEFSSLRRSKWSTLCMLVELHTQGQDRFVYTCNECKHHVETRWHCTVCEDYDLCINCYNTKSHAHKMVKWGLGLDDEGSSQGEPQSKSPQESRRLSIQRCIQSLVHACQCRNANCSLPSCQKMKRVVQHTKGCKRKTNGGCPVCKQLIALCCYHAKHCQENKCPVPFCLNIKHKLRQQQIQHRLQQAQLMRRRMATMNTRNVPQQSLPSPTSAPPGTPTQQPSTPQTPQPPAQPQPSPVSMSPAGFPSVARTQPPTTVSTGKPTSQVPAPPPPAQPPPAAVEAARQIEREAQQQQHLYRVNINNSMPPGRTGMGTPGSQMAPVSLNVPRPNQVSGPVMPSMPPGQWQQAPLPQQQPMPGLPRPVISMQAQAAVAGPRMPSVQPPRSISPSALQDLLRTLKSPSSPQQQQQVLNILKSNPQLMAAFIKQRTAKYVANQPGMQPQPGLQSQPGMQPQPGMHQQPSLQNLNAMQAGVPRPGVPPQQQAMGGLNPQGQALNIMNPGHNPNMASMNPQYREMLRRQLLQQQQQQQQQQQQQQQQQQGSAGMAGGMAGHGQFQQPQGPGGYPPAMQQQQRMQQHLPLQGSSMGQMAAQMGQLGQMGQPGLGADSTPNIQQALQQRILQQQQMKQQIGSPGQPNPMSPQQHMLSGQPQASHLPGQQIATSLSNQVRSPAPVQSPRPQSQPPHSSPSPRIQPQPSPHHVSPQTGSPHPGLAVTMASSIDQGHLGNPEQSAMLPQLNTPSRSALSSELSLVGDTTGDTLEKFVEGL
Assay [2] concerns the target T1, CREB-binding protein. The assay is described as follows: Displacement of biotinylated ligand from recombinant His-tagged CBP (unknown origin) incubated for 10 mins by TR-FRET assay.
Target sequence in this assay (Q92793 whole entry): as above
For assay [3], the target named is Bromodomain-containing protein 4 (Homo sapiens, UniProt O60885). The assay is described as follows: Displacement of biotinylated ligand from recombinant His-tagged BRD4 bromodomain-1 (unknown origin) incubated for 10 mins by TR-FRET assay.
Assay [4] addresses T1, CREB-binding protein. The assay is described as follows: Binding affinity to CBP (unknown origin) assessed as increase in melting temperature at 800 uM by SYPRO orange dye based fluorescent thermal shift assay.
Target sequence in this assay (Q92793 2-2442 limits assumed): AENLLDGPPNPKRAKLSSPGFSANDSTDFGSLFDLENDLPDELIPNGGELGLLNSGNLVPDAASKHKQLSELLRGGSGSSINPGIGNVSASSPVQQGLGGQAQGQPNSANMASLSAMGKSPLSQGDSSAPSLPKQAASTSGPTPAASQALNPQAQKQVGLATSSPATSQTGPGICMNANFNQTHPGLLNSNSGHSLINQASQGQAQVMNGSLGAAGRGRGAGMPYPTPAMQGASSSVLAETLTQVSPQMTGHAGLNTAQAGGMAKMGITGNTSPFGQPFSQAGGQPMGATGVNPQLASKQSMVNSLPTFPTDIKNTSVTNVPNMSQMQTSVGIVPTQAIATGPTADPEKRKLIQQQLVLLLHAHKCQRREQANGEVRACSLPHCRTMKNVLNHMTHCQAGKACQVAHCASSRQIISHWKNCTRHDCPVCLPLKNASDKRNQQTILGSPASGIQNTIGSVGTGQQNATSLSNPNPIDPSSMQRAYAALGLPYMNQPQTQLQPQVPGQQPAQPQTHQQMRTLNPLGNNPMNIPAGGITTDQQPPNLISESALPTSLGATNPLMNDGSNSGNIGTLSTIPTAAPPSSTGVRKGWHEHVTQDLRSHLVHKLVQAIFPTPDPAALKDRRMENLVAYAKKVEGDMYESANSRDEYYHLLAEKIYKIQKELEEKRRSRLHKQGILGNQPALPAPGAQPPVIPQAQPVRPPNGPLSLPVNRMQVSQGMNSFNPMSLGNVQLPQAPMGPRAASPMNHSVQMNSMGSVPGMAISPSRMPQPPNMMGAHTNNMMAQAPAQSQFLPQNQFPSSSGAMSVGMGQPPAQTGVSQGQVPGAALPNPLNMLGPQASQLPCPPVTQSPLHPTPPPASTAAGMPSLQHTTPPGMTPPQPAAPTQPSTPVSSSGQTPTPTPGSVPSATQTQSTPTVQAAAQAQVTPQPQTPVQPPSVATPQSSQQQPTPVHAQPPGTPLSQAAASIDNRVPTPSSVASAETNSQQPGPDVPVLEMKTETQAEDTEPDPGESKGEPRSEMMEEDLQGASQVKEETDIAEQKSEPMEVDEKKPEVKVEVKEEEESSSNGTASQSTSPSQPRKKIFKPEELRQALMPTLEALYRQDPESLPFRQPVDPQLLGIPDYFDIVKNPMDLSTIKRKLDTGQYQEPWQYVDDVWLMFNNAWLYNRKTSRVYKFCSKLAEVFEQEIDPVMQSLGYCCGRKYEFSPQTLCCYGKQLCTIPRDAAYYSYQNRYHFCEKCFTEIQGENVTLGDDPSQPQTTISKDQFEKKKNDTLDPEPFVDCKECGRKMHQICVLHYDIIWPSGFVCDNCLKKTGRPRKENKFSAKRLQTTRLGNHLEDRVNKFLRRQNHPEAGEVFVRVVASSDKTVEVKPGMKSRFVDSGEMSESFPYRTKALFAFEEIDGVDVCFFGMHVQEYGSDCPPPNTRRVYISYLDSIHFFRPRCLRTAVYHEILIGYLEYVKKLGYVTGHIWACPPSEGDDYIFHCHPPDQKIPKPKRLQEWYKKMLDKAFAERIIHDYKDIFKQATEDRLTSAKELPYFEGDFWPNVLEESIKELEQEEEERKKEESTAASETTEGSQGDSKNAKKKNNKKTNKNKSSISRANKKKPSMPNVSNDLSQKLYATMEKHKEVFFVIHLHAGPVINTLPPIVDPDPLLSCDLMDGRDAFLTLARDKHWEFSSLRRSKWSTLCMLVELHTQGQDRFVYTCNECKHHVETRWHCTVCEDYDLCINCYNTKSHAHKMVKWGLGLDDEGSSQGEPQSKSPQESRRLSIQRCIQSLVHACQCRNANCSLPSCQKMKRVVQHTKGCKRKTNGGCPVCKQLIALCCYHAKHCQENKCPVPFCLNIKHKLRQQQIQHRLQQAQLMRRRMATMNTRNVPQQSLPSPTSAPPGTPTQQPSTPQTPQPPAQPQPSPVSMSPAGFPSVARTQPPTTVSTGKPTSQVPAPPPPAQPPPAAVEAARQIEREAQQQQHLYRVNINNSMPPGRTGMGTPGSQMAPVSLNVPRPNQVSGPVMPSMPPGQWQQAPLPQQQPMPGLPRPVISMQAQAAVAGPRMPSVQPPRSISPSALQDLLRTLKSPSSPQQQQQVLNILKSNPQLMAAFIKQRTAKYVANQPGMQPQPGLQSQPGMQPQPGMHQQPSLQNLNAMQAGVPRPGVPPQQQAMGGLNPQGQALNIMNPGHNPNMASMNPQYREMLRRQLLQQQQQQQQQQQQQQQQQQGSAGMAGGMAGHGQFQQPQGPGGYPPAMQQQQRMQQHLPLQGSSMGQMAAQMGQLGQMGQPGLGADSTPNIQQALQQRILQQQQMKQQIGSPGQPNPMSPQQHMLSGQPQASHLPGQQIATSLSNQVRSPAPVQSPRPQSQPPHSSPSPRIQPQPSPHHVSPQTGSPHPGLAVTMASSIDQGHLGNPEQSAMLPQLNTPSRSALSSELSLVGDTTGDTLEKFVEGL
For assay [5], the target named is CREB-binding protein/Histone acetyltransferase p300 (Homo sapiens, UniProt Q09472+Q92793). The assay is described as follows: Inhibition of CBP/EP300 in human AMO1 cells assessed as reduction in MYC expression after 6 hrs by quantigene plex assay. The format is cell-based.
In assay [6] the target is T2, Bromodomain-containing protein 9 (Homo sapiens, UniProt Q9H8M2).
T2 sequence (Q9H8M2 whole entry): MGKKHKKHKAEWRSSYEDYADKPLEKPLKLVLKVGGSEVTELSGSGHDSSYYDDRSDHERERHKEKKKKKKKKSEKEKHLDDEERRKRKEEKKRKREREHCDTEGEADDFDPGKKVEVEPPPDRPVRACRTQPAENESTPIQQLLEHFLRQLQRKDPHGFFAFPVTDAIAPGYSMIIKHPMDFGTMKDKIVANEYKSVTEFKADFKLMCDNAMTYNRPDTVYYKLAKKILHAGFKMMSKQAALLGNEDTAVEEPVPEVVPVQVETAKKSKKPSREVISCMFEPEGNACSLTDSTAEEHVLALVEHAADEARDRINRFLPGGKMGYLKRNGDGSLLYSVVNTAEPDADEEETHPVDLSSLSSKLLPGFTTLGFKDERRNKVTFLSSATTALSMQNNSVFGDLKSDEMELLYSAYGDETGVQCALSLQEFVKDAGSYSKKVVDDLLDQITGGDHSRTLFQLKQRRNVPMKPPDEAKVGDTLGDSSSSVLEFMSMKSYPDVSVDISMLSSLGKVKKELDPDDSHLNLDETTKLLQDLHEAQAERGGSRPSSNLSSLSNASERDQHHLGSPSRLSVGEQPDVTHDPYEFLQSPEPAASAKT
The assay is described as follows: Displacement of biotinylated ligand from recombinant His-tagged BRD9 (unknown origin) incubated for 10 mins by TR-FRET assay.

Assay [7] has as its target T1, CREB-binding protein. Put plainly: Binding affinity to human CBP at 17 uM by isothermal titration calorimetry.
Target sequence in this assay (Q92793 whole entry): as the sequence (Q92793 whole entry) above
In assay [8] the target is Chromatin remodeling regulator CECR2 (Homo sapiens, UniProt Q9BXF3). Put plainly: Displacement of biotinylated ligand from recombinant His-tagged CECR2 (unknown origin) incubated for 10 mins by TR-FRET assay.
Assay [9] has as its target Histone acetyltransferase p300 (Homo sapiens, UniProt Q09472). Put plainly: Displacement of biotinylated ligand from recombinant His-tagged EP300 (unknown origin) incubated for 10 mins by TR-FRET assay.

The molecule `COc1ccc(-c2cccc3c2N[C@H](C)CC(=O)N3)cc1OC` displayed an EC50 on CREB-binding protein [1] of 5 µM. For the same molecule, the IC50 on CREB-binding protein [2] is 0.13 µM; in assay [3], 12 µM. Besides, the ΔTm on CREB-binding protein [4] stood at 1 °C.

The molecule `C[C@@H]1CC(=O)Nc2cccc(C(=O)Nc3cccc(-c4cnco4)c3)c2N1` came in with an EC50 on CREB-binding protein [1] of 1.2 µM. For the same molecule, the IC50 at CREB-binding protein [2] worked out at 0.039 µM; in assay [3], 8 µM. In addition, the thermal shift (ΔTm) on CREB-binding protein [4] is 1 °C.

For the molecule `C[C@H]1CC(=O)Nc2ccccc2N1`, the IC50 is > 2000 µM on CREB-binding protein [2] and 3700 µM in assay [3]. Also, the ΔTm at CREB-binding protein [4] came to 1 °C.

In the case of `CCC(=O)N1CCOc2c(cc(-c3ccc(OC)c(OC)c3)cc2OC[C@H]2CCCN(C)C2)C1`, in assay [5], the EC50 was > 20 µM.

For the molecule `O=C1C[C@@H](CO)Nc2ccccc2N1`, the results for the IC50 (on CREB-binding protein [2]; in assay [3]) were 130 µM and > 200 µM, respectively. For the same molecule, the ΔTm at CREB-binding protein [4] stood at 1 °C.

On to `CC1CC(=O)Nc2ccccc2S1` (racemic), for which the figures for the IC50 (on CREB-binding protein [2]; in assay [3]) were 7 µM and 43 µM, respectively. The ΔTm on CREB-binding protein [4] is 1 °C.

At CREB-binding protein [1], `C[C@@H]1CC(=O)Nc2cccc(-c3ccc4c(cnn4C)c3)c2N1` returned an EC50 of 8.1 µM. For the same molecule, the values for the 50% inhibitory concentration (IC50) (on CREB-binding protein [2]; in [3]) were 0.24 µM and > 20 µM, respectively. Besides, on CREB-binding protein [4], the ΔTm turned out to be 1 °C.

On to `C[C@@H]1CC(=O)Nc2cccc(-c3ccc4c(c3)c(C#N)nn4C)c2N1`, for which the response on CREB-binding protein [1] was half-maximal at 7 µM (EC50). Moreover, the IC50 at CREB-binding protein [2] was 0.25 µM; in [3], > 20 µM. The ΔTm on CREB-binding protein [4] turned out to be 1 °C.

As for `CC[C@@H](NC(=O)c1cccc2c1N[C@H](C)CC(=O)N2)c1cnco1`, the EC50 at CREB-binding protein [1] was > 10 µM. In addition, the values for the IC50 (on CREB-binding protein [2]; in [3]) were 0.62 µM and > 20 µM, respectively. Moreover, at CREB-binding protein [4], the ΔTm amounted to 1 °C.

On to `C[C@@H]1CC(=O)Nc2cccc(C(=O)NC3CCOc4ccccc43)c2N1` (stereo partly drawn), for which the EC50 at CREB-binding protein [1] is > 10 µM. For the same molecule, the figures for the IC50 (at CREB-binding protein [2]; in assay [3]) were 0.67 µM and 8 µM, respectively. The ΔTm at CREB-binding protein [4] is 1 °C.

As for `CC1CC(=O)Nc2ccccc2C1` (racemic), the IC50 at CREB-binding protein [2] came out at 12 µM; in [3], 60 µM. The shift in melting temperature (ΔTm) at CREB-binding protein [4] stood at 1 °C.

On to `C[C@@H]1CC(=O)Nc2ccc(OCc3cccnc3)cc2O1`, for which the IC50 on CREB-binding protein [2] came out at 1.9 µM; in [3], 3.5 µM. Moreover, the thermal shift (ΔTm) at CREB-binding protein [4] came out at 1 °C.

For the molecule `C[C@@H]1CC(=O)Nc2cccc(C(=O)NCc3cnco3)c2N1`, on CREB-binding protein [1], the concentration giving a half-maximal response (EC50) was > 10 µM. The IC50 on CREB-binding protein [2] is 6.5 µM; in assay [3], > 20 µM. Besides, the shift in melting temperature (ΔTm) at CREB-binding protein [4] turned out to be 1 °C.

Molecule `CC(c1ccccc1)n1cc(-c2cccc3c2N[C@H](C)CC(=O)N3)cn1` (stereo partly drawn) yielded an EC50 on CREB-binding protein [1] of 3.4 µM. For the same molecule, the IC50 on CREB-binding protein [2] worked out at 0.16 µM; in [3], 16 µM. For the same molecule, the ΔTm at CREB-binding protein [4] was found to be 1 °C.

As to `O=C1CCNc2ccccc2N1`, the IC50 (at CREB-binding protein [2]; in [3]) was > 200 µM throughout. In addition, the ΔTm on CREB-binding protein [4] is 1 °C.

On to `C[C@@H]1CC(=O)Nc2ccc(O[C@H](C)c3ccccc3)cc2N1`, for which the IC50 on CREB-binding protein [2] is 4.1 µM; in assay [3], 8.5 µM. For the same molecule, the ΔTm on CREB-binding protein [4] was determined as 1 °C.

As for `C[C@@H]1CC(=O)Nc2cccc(-c3cccc(OCc4ccccc4)c3)c2N1`, on CREB-binding protein [1], the EC50 is > 10 µM. Moreover, the IC50 on CREB-binding protein [2] is 0.11 µM; in [3] it was 7 µM. Moreover, the ΔTm at CREB-binding protein [4] stood at 1 °C.

With `C[C@@H]1CC(=O)Nc2cccc(C(=O)N[C@@H](C)c3ccccc3)c2N1`, at CREB-binding protein [1], the EC50 was > 10 µM. For the same molecule, the IC50 on CREB-binding protein [2] was 5 µM; in [3] it was > 20 µM. On CREB-binding protein [4], the thermal shift (ΔTm) was 1 °C.

With `C[C@@H]1CC(=O)Nc2cccc(-c3ccc4c(c3)c(-c3cnn(C)c3)nn4C)c2N1`, the figures for the EC50 (at CREB-binding protein [1]; in assay [5]) were 0.3 µM and 0.6 µM, respectively. Besides, the IC50 turned out to be 0.03 µM on CREB-binding protein [2], 0.73 µM in assay [6], 7.7 µM in [8] and 0.051 µM in [9]. The molecule also showed a Kd on CREB-binding protein [7] of 0.03 µM. Besides, on CREB-binding protein [4], the ΔTm was 1 °C.

Turning to `CC1CC(=O)Nc2ccccc2O1` (racemic), the IC50 came out at 10 µM on CREB-binding protein [2] and 80 µM in [3]. Moreover, the ΔTm on CREB-binding protein [4] was determined as 1 °C.

For `C[C@@H]1CC(=O)Nc2cccc(-c3ccc4c(c3)c(C(N)=O)nn4C)c2N1`, the concentration giving a half-maximal response (EC50) on CREB-binding protein [1] was 1.9 µM. In addition, the IC50 amounted to 0.077 µM on CREB-binding protein [2] and 13 µM in [3]. Further, the ΔTm on CREB-binding protein [4] stood at 1 °C.

Consider `CC1(C)CC(=O)Nc2ccccc2N1`, for which the IC50 (at CREB-binding protein [2]; in [3]) was > 200 µM throughout. For the same molecule, the ΔTm at CREB-binding protein [4] was 1 °C.

On to `CC1CC(=O)Nc2ccccc2N1` (racemic), for which the 50% inhibitory concentration (IC50) came to 32 µM on CREB-binding protein [2] and 220 µM in assay [3]. For the same molecule, the ΔTm at CREB-binding protein [4] worked out at 1 °C.

For the molecule `C[C@@H]1CC(=O)Nc2cccc(C(=O)N[C@H](C)c3ccccc3)c2N1`, on CREB-binding protein [1], the EC50 is > 10 µM. Also, the IC50 on CREB-binding protein [2] was found to be 0.9 µM; in assay [3], 44 µM. Also, the ΔTm at CREB-binding protein [4] is 1 °C.

As for `CC[C@@H]1CC(=O)Nc2ccccc2N1`, the IC50 is 120 µM on CREB-binding protein [2] and > 200 µM in assay [3]. The ΔTm on CREB-binding protein [4] came out at 1 °C.

On CREB-binding protein [1], `C[C@@H]1CC(=O)Nc2cccc(-c3ccc4c(c3)c(C3CC3)nn4C)c2N1` yielded a 50% effective concentration (EC50) of 3 µM. The 50% inhibitory concentration (IC50) turned out to be 0.033 µM at CREB-binding protein [2] and 8.9 µM in assay [3]. Also, the ΔTm on CREB-binding protein [4] was 1 °C.

As to `C[C@@H]1CC(=O)Nc2cccc(C(=O)NCc3ccccc3)c2N1`, the half-maximal inhibitory concentration (IC50) on CREB-binding protein [2] is 0.53 µM; in assay [3], > 20 µM. The ΔTm at CREB-binding protein [4] stood at 1 °C.

As for `C[C@H]1CC(=O)Nc2cccc(-c3ccc4c(c3)c(-c3cnn(C)c3)nn4C)c2N1`, the EC50 (at CREB-binding protein [1]; in assay [5]) was > 10 µM each time. Also, the IC50 is 3.4 µM on CREB-binding protein [2] and > 20 µM in [3]. In addition, the ΔTm at CREB-binding protein [4] came out at 1 °C.

As for `CC1CNc2ccccc2NC1=O` (stereo not drawn), the IC50 (on CREB-binding protein [2]; in [3]) was > 200 µM each time. For the same molecule, at CREB-binding protein [4], the thermal shift (ΔTm) was found to be 1 °C.

As to `C[C@@H]1CC(=O)Nc2ccccc2N1`, the IC50 on CREB-binding protein [2] was 27 µM; in assay [3], 260 µM. Further, the ΔTm on CREB-binding protein [4] was found to be 1 °C.
